The values below come from patent publication US20180214462A1 (priority 2015, published 2018).

For data set [1], the system named is peri-ischemic cortex. The data set can be described thus: Photothrombosis stroke model: BBB dysfunction in the peri-ischemic cortex. The data set is classed as in vivo, rat. The method, then:
Dynamic imaging of regional cerebral blood flow (rCBF) and BBB permeability measurements were performed as reported (Chassidim et al., 2014; Prager et al., 2010). The non-BBB permeable fluorescent dye, sodium fluorescein (NaFlu) was injected intravenously (1 mg/ml, 0.2 ml/injection, in 0.9% NaCl). Full-resolution (658×496 pixel) images of cortical surface vessels were obtained (5 frames/second, EMCCD camera: Andor Technology, DL-658 M-TIL, FIG. 4C) before, during and after injection of the tracer. […] Signal intensity changes over time and space were then analyzed so that each pixel was represented by intensity vs. time (IT) curve (FIG. 4E). […] A BBB permeability index (PI) (FIG. 4E) was calculated for each extra-vascular pixel as the ratio between IT curve and AIF, from the point of the second decline phase to the end of the measurement
The PI indicates how much tracer remains in extra-vascular tissue in relation to the applied amount. […] The global permeability of a region was calculated by averaging its PI values. Permeability measurements with this approach are possible only for regions with fully functional vasculature as the transfer of molecules between vessel and parenchyma is quantified. […]

Data set [2] has as its system cortex of rats. The data set is classed as in vivo, rat. The following applies: for increase in vessel permeability: cortical perfusion 1 mM, TTX, CNQX and PTX present. The protocol: (§1) Body temperature was continuously monitored and kept stable at 37±0.5° C. using a feedback-controlled heating pad (Physitemp Ltd.). Heart rate, breath rate and oxygen saturation levels were continuously monitored using STARR (Life Sciences Ltd.). A cranial section (4 mm caudal, 2 mm frontal, 5 mm lateral to bregma) was removed over the right sensory-motor cortex. The dura and arachnoid layers were removed (FIG. 4B) and the exposed cortex was continuously perfused with ACSF (Prager et al., 2010) containing (in mM): 124 NaCl, 26 NaHCO3, 1.25 NaH2PO4, […], 2 CaCl2, 3 KCl, and 10 Glucose (pH 7.4).
(§2) To block neuronal activity tetrodotoxin (TTX) (Narahashi et al., 1964) (10 μM), 6-Cyano-2,3-dihydroxy-7-nitro-quinoxaline (CNQX) (Yoshiyama et al., 1995) (50 μM), D-AP5 (Morris, 1989) (50 μM) and picrotoxin (PTX) (Yoon et al., 1993) (50 μM) were added to the perfusing solution (ACSF). To induce prolonged seizures (status epilepticus, SE), 4AP (Uva et al., 2013) (500 μM) or PTX (100 μM) were added to the ACSF. Electrocorticgram (ECoG) was recorded using bi-polar electrodes and a telemetric recording system (DSI Ltd.). In some cases, thrombotic stroke was induced using photothrombosis (Prado, 1987). Detection of calcium ions in the rat cortex was done with calcium chelators as previously reported (Stosiek et al., 2003). 50 μg of the fluorescent chelator OGB were dissolved in 4 μl of dimethyl sulfoxide) DMSO) containing 20% pluronic f-127. This mixture was diluted in […] of a loading solution containing (in mM): 150 NaCl, 2.5 KCl, 10 HEPES, in ddH2O (pH=7.4).
(§3) Dynamic imaging of regional cerebral blood flow (rCBF) and BBB permeability measurements were performed as reported (Chassidim et al., 2014; Prager et al., 2010). The non-BBB permeable fluorescent dye, sodium fluorescein (NaFlu) was injected intravenously (1 mg/ml, 0.2 ml/injection, in 0.9% NaCl). Full-resolution (658×496 pixel) images of cortical surface vessels were obtained (5 frames/second, EMCCD camera: Andor Technology, DL-658 M-TIL, FIG. 4C) before, during and after injection of the tracer. Offline image analysis was carried out using MATLAB (MathWorks, Natick, USA) and included: sub-pixel image registration, segmentation using noise filtration, hole-filling and adaptive threshold to produce a binary image, separating blood vessels from extra-vascular regions (FIG. 4D). Signal intensity changes over time and space were then analyzed so that each pixel was represented by intensity vs. time (IT) curve (FIG. 4E). An arterial IT curve (AIF) was created by spatially averaging signal intensity through time in the primary artery. A BBB permeability index (PI) (FIG. 4E) was calculated for each extra-vascular pixel as the ratio between IT curve and AIF, from the point of the second decline phase to the end of the measurement
The PI indicates how much tracer remains in extra-vascular tissue in relation to the applied amount. PI>1 indicates tracer accumulation and defines BBB dysfunction. Fitting a PI to each extra-vascular pixel enabled spatial mapping of BBB permeability (FIG. 4F). The PI for each vascular pixel was set to 0, and therefore vessels were excluded from the map. The global permeability of a region was calculated by averaging its PI values. Permeability measurements with this approach are possible only for regions with fully functional vasculature as the transfer of molecules between vessel and parenchyma is quantified. Increased permeability in damaged vessels is not depicted here. […]

In data set [3] the test system is exposed rat neocortex. The data set can be described thus: NMDA-R antagonists during 4AP-induced recurrent seizures: BBB permeability, ECoG, vessel diameter. Format: in vivo. Particulars: 4AP seizures, Memantine 40 mg/kg IP or D-AP5 100 μM topical; for seizure-induced permeability increase / BBB damage: pooled, p=0.02. The method, then: as §3
ECoG was recorded using a telemetric system (DSI Ltd.). Two electrodes were implanted, one attached to an intra-cranial screw adjacent to the exposed cortex, and the second placed over the exposed cortex while secured with bone wax and dental cement. In-house MATLAB scripts were used to display and record signals for post-processing. Signals were sampled at 200 Hz and filtered using a MATLAB simulated Butterworth filter, so to display only the desired frequency band (10-40 Hz). The mean power was calculated using the MATLAB “pwelch” function.
Since prolonged and recurrent epileptic seizures may also be associated with vascular pathology and damage to the BBB through the activation of NMDA-R, the effect of NMDA-R antagonists after the induction of recurrent seizures in anesthetized rats was tested. The epileptogenic substance 4AP was applied on the surface of the brain while monitoring ECoG.
Animals were treated with either topical application of the specific NMDA-R blocker D-AP5 (100 μM) (prior to and during seizure induction), or systemically with the FDA approved memantine (40 mg/kg, intraperitonealy, immediately following seizure onset).

The test system of data set [4] is exposed cortex. As to the kind of experiment: Focally-induced cortical seizures (4AP or PTX): intravital fluorescence angiography of vessel diameter and BBB permeability. The data set is classed as in vivo, rat. Particulars: for increase in vessel diameter: seizures induced by 4AP (n=6) or PTX (n=2), pooled n=8, immediate. The protocol:
All experimental procedures in animals were approved by the Ben-Gurion University ethics committee for animal testing. Unless otherwise mentioned, all materials were purchased from Sigma-Aldrich ltd. Surgical procedures in male Spraugue-Dawley rats (200-380 g BW) were performed as previously reported (Prager et al., 2010). Rats were deeply anesthetized by intraperitoneal administration of either isoflurane or ketamine (100 mg/ml, 0.08 ml/100 gr) and xylasine (20 mg/ml, 0.06 ml/100 gr). The tail vein was catheterized, and animals were placed in a stereotactic frame (FIG. 4A) under a SteREO Lumar V12 fluorescence microscope (Zeiss, Gottingen, Germany).
as §1, §2, §3
The PI indicates how much tracer remains in extra-vascular tissue in relation to the applied amount. PI>1 indicates tracer accumulation and defines BBB dysfunction. Fitting a PI to each extra-vascular pixel enabled spatial mapping of BBB permeability (FIG. 4F). The PI for each vascular pixel was set to 0, and therefore vessels were excluded from the map. The global permeability of a region was calculated by averaging its PI values. […]

Data set [5] concerns cultured brain endothelial cells. The following applies: cited from earlier work.
Data set [6] concerns vessels' wall (rat neocortex). The data set can be described thus: Calcium imaging (OGB, probe-based confocal laser endomicroscopy) in vessel wall after drop application of glutamate. The data set is classed as in vivo. The protocol:
as §2
The exposed cortex was incubated with the final mixture for 1 hour. Probe-based confocal laser endomicroscopy (PCLE) was performed using Cellvizio dual band (Mauna Kea Technologies Ltd.) at 488 and 660 nm. […]
In control experiments, brains were exposed to ACSF for 60-120 min, no significant change in permeability was measured, excluding a time-dependent increase in permeability (“control”, −5.11±3.07%, n=16, P=0.7, Wilcoxon, FIG. 2A). […]

Data set [7] is described as follows: Preventing intracellular calcium elevation with calcium chelators in vivo. Particulars: data not shown. The source says: The observations that direct application of NMDA similarly enhances permeability, and that permeability increase is blocked in the presence of NMDA-R blockers (FIG. 2A) indicate that the effect of glutamate is mediated by NMDA-R. Our experiments showing increased intracellular calcium in vascular endothelium in response to glutamate are consistent with previous in vitro data showing that NMDA-mediated effects are dependent on increased intracellular calcium (Krizbai et al., 1998; Sharp et al., 2003). However, we cannot rule out non-calcium dependent signaling mechanisms and the role of other components of the neurovascular unit, such as astrocytes and pericytes, which could also respond to glutamate and signal brain endothelial cells to alter permeability (Carmignoto and Gómez-Gonzalo, 2010). […] The intracellular signaling leading to enhanced permeability is also not clear. […] The latter seems unlikely with the relatively short time delay between insult (seizure/stroke) and enhanced permeability. Modulation of transcellular transport mechanisms (e.g. intercellular adhesion molecule-ICAM mediated) (Yang et al., 2005)) may also be involved.
A general note: Calcium flux is commonly read through the fluorescence of an indicator in the cells.

Setting [8] is: 30 minutes from seizure onset, recurrent seizures, n=7.
Setting [9] is: ~10 minutes from seizure onset, 4AP or PTX pooled, n=8.

Entries after “also recorded” stand apart in the source; their conditions may differ.

Take `N[C@H](CCCP(=O)(O)O)C(=O)O` [D-AP5, R-2-amino-5-phosphonopentanoate]: in data set [1] (30 and 60 min following PT, n=7, p=0.13), the “averaged percent increase in permeability in the peri-infarct cortex” value was “non-significant change”. The “spatial progression of BBB dysfunction in the peri-ischemic region” value in data set [1] (30 and 60 minutes after clot induction, vs absence of D-AP5) is “significantly reduced; also recorded: significantly diminishes”. Moreover, the “change in vessel permeability by glutamate in the presence of antagonist” value in data set [2] (glutamate + D-AP5 50 μM) is listed as −3.81±4.34%. In data set [3], the “seizure intensity (ECoG)” value is recorded as “no impact” and the “seizure-induced permeability increase / BBB damage” value is recorded as “diminished”.

Turning to `CC12CC3CC(C)(C1)CC(N)(C3)C2` [memantine], in data set [3], the “seizure intensity (ECoG)” value is “no impact” and the “seizure-induced permeability increase / BBB damage” value is recorded as “diminished”.

Turning to `CN[C@H](CC(=O)O)C(=O)O` [NMDA, N-methyl-d-aspartate], the “increase in vessel permeability” value in data set [2] came to 18.44±7.58%.

On to `Nc1ccncc1` [4AP], for which the results for the “increase in vessel permeability to NaFlu” value in data set [4] (setting [8]) and in data set [4] (setting [9]) were 14.17±4.65% and 20.01±7.24%, respectively. The “increase in vessel diameter” value in data set [4] worked out at 10.05±1.01%.

With picrotoxin [PTX], the “increase in vessel permeability to NaFlu” value in data set [4] (setting [8]) was 14.17±4.65%; in data set [4] (setting [9]), 20.01±7.24%. In addition, the “increase in vessel diameter” value in data set [4] is listed as 10.05±1.01%.

For `N[C@@H](CCC(=O)O)C(=O)O` [glutamate], in data set [5], the “permeability of cultured brain endothelial cells” value was “increase permeability”. In addition, in data set [5] (glutamate 1 mM, NMDA-R mediated), the “tight junction protein occludin” value was “reduction in the levels and cellular redistribution”. In addition, in data set [5] (glutamate 1 mM), the electrical resistance entry was “lower electrical resistance”. The “increase in vessel permeability” value in data set [2] is on record as 18.15%±5.9%. The “change in vessel diameter” value in data set [2] (glutamate application with TTX, CNQX, PTX) came out at 3.12±2.24%. In data set [2] (topical glutamate 1 mM with axonal and synaptic transmission blockers), the “shift in vascular diameter” value is “not inducing a shift in vascular diameter”. In data set [6] (drop application of glutamate), the “calcium signal in the vessel wall” value was “Rise in calcium signal”. In addition, the “duration of increase in endothelial intracellular calcium” value in data set [6] (drop application of glutamate 0.01-1 mM, n=109) was found to be 12.5 ± 1.3 s.

Turning to `CC(=O)OCOC(=O)CN(CC(=O)OCOC(C)=O)c1ccccc1OCCOc1ccccc1N(CC(=O)OCOC(C)=O)CC(=O)OCOC(C)=O` [BAPTA-AM], the “vascular side effect in vivo” value in data set [7] was “massive vasoconstriction and associated ischemia”.
